Experimental data reported in patent US9555038B2, “Heterocycle-substituted tetracyclic compounds and methods of use thereof for the treatment of viral diseases” (Merck Sharp & Dohme Corp., priority 2013, dated 2017).
Read-outs that look alike come from different tables or passages of the source.

Assays:
HCV replicon 1B = test: Cell-based HCV Replicon Assay B, replicon 1B
Procedure, shortened: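 Replicon cells seeded in 5% FBS; compounds added 24 h later, then 3 days' incubation. Replicon RNA quantified by real-time RT-PCR with genotype-specific primers/probes (NS5B amplicon for 1b). EC50 = concentration raising CT by 1 over projected baseline.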

HCV replicon 2B = test: Cell-based HCV Replicon Assay A, replicon 2B
Procedure, shortened: (§1)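 Replicon cells seeded at 2000 cells/well with compound, 10 serial dilutions starting at 333.3 nM to 1.667 nM, 0.5% DMSO, 5% FBS, harvested on day 3. Replicon RNA measured by multiplex TaqMan RT-PCR with cyclophilin as endogenous control, quantified from standard curves of Ct vs log ng RNA.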

HCV replicon 1A = test: Cell-based HCV Replicon Assay A, replicon 1A
Procedure, shortened: as §1

HCV replicon 1AY93H = test: Cell-based HCV Replicon Assay A, replicon 1AY93H
Procedure, shortened: as §1

HCV replicon 1AQ30D = test: Cell-based HCV Replicon Assay B, replicon 1AQ30D
Protocol: In an alternate assay (“Replicon Assay B”), 1000 cells were seeded per well in a 384-well collagen coated black plate from Greiner bio-one (Cat #781946) in 5% FBS. Inhibitors of this invention were added at 24 h post-seeding, and the plates were incubated for 3 days. Cells were subsequently lysed with Qiagen lysis buffer (Cat #1062731) to extract the RNA. HCV replicon RNA level was measured by real-time PCR using the RNA-to-CT kit from Applied Biosystem (Cat #4392656) and genotype-specific primers and probes. The amplicon was located within NS5B. The sequence of the PCR primers are as follows: 5B.2F, ATGGACAGGCGCCCTGA (SEQ. ID NO. 1); 5B.2R, […] (SEQ. ID NO. 2); the probe sequence was FAM-labeled CACGCCATGCGCTGCGG (SEQ. ID NO. 3). To detect genotype 1A the primer 1A F, TGCGGAACCGGTGAGTACA and 1A R, […] were used; the probe sequence was FAM-[…].
The real-time RT-PCR reactions were run on ABI PRISM 7900HT or Viia7 Sequence Detection System using the following program: 48° C. for 30 minutes, 95° C. for 10 minutes, 40 cycles of 95° C. for 15 sec, 60° C. for 1 minutes. The 50% effective concentration (EC50) was the drug concentration necessary to achieve an increase in the cycle threshold (CT) of 1 over the projected baseline CT.
Data was obtained for various compounds of the present invention using the methods described in the Example above, and is presented in the table immediately below. Data for replicons 1A, 1AY93H and 2B were obtained using Replicon Assay A and data for replicons 1AQ30D and 1B were obtained using Replicon Assay B.

[1] = Hepatitis C virus, read-out: 2B IC50 (nM), replicon 2B
[2] = Hepatitis C virus, read-out: 1A Y93H IC50 (nM), replicon 1AY93H
[3] = Hepatitis C virus, read-out: 1A Q30D IC50 (nM), replicon 1AQ30D
[4] = read-out: 1A Y93H IC50, replicon 1AY93H
[5] = read-out: 1A Q30D IC50, replicon 1AQ30D

| SMILES | IC50 (HCV replicon 1B; Hepatitis C virus) | IC50 (HCV replicon 2B; [1]) | IC50 (HCV replicon 1A; Hepatitis C virus) | IC50 (HCV replicon 1AY93H; [2]) | IC50 (HCV replicon 1AQ30D; [3]) | IC50 (HCV replicon 1B) | IC50 (HCV replicon 2B; read-out: 2B IC50, replicon 2B) | IC50 (HCV replicon 1AY93H; [4]) | IC50 (HCV replicon 1AQ30D; [5]) | IC50 (HCV replicon 1A) | IC50 (HCV replicon 1AQ30D; replicon 1AQ30D, read-out: 1A Q30D IC50) |
| --- | --- | --- | --- | --- | --- | --- | --- | --- | --- | --- | --- |
| COC(=O)N[C@H](C(=O)N1CCC[C@H]1c1ncc(-c2cc(F)c3c(c2)OC(c2cnc(-c4ccccn4)s2)n2c-3cc3cc(-c4cnc([C@@H]5CCCN5C(=O)[C@@H](NC(=O)OC)C(C)C)[nH]4)ccc32)[nH]1)C(C)C (mixture of isomers) [Compound 407] | 0.004 nM | 0.192 nM | 0.0027 nM | 0.143 nM | 0.482 nM | – | – | – | – | – | – |
| COC(=O)N[C@H](C(=O)N1CCC[C@H]1c1ncc(-c2cc(F)c3c(c2)OC(c2cnc(C)s2)n2c-3cc3cc(-c4cnc([C@@H]5CCCN5C(=O)[C@@H](NC(=O)OC)C(C)C)[nH]4)ccc32)[nH]1)C(C)C (mixture of isomers) [Compound 416] | 0.003 nM | 0.119 nM | 0.0022 nM | 0.085 nM | 1.77 nM | – | – | – | – | – | – |
| COC(=O)N[C@H](C(=O)N1CCC[C@H]1c1ncc(-c2cc(F)c3c(c2)OC(c2cnc(C(C)(C)C)s2)n2c-3cc3cc(-c4cnc([C@@H]5CCCN5C(=O)[C@@H](NC(=O)OC)C(C)C)[nH]4)ccc32)[nH]1)C(C)C (mixture of isomers) [Compound 418] | 0.003 nM | 0.095 nM | 0.0023 nM | 0.0083 nM | 0.255 nM | – | – | – | – | – | – |
| COC(=O)N[C@H](C(=O)N1CCC[C@H]1c1ncc(-c2cc(F)c3c(c2)OC(c2cnc(-c4cccnc4)s2)n2c-3cc3cc(-c4cnc([C@@H]5CCCN5C(=O)[C@@H](NC(=O)OC)C(C)C)[nH]4)ccc32)[nH]1)C(C)C (mixture of isomers) [Compound 422] | 0.015 nM | 35.2 nM | 0.021 nM | – | 1.67 nM | – | – | – | – | – | – |
| COC(=O)N[C@H](C(=O)N1CCC[C@H]1c1ncc(-c2cc(F)c3c(c2)OC(c2cnc(-c4cnccn4)s2)n2c-3cc3cc(-c4cnc([C@@H]5CCCN5C(=O)[C@@H](NC(=O)OC)C(C)C)[nH]4)ccc32)[nH]1)C(C)C (mixture of isomers) [Compound 423] | 0.007 nM | 0.041 nM | 0.0053 nM | 0.0526 nM | 0.444 nM | – | – | – | – | – | – |
| COC(=O)N[C@H](C(=O)N1CCC[C@H]1c1ncc(-c2cc(F)c3c(c2)OC(c2cnc(C4(C)CCOCC4)s2)n2c-3cc3cc(-c4cnc([C@@H]5CCCN5C(=O)[C@@H](NC(=O)OC)C(C)C)[nH]4)ccc32)[nH]1)C(C)C (mixture of isomers) [Compound 456] | 0.0027 nM | 0.316 nM | – | 0.021 nM | 0.559 nM | – | – | – | – | – | – |
| COCc1ncc(C2Oc3cc(-c4cnc([C@@H]5CCCN5C(=O)[C@@H](NC(=O)OC)C(C)C)[nH]4)cc(F)c3-c3cc4cc(-c5cnc([C@@H]6CCCN6C(=O)[C@@H](NC(=O)OC)C(C)C)[nH]5)ccc4n32)s1 (single isomer, unassigned) [Compound 18] | – | – | – | – | 0.072 nM | 0.001 nM | 0.016 nM | 0.0069 nM | – | – | – |
| COC(=O)N[C@H](C(=O)N1CCC[C@H]1c1ncc(-c2cc(F)c3c(c2)OC(c2cnc(C4CC4)s2)n2c-3c(F)c3cc(-c4cnc([C@@H]5CCCN5C(=O)[C@@H](NC(=O)OC)C(C)C)[nH]4)ccc32)[nH]1)C(C)C (single isomer, unassigned) [Compound 21] | 0.004 nM | – | – | – | 0.494 nM | – | 0.012 nM | 0.0177 nM | – | – | – |
| COC(=O)N[C@H](C(=O)N1CCC[C@H]1c1ncc(-c2cc(F)c3c(c2)OC(c2ncc(-c4ccc(C#N)cc4)s2)n2c-3cc3cc(-c4cnc([C@@H]5CCCN5C(=O)[C@@H](NC(=O)OC)C(C)C)[nH]4)ccc32)[nH]1)C(C)C (single isomer, unassigned) [Compound 44] | – | – | – | – | – | 0.002 nM | 0.054 nM | 0.103 nM | 0.778 nM | – | – |
| COC(=O)N[C@H](C(=O)N1CCC[C@H]1c1ncc(-c2cc(F)c3c(c2)OC(c2cnc(Oc4ccc(F)cc4)s2)n2c-3cc3cc(-c4cnc([C@@H]5CCCN5C(=O)[C@@H](NC(=O)OC)C(C)C)[nH]4)ccc32)[nH]1)C(C)C (single isomer, unassigned) [Compound 49] | 0.002 nM | – | 0.001 nM | – | – | – | 0.002 nM | – | 0.029 nM | – | – |
| COC(=O)N[C@H](C(=O)N1CCC[C@H]1c1ncc(-c2cc(F)c3c(c2)OC(c2cnc(Oc4ccc(F)cc4)s2)n2c-3cc3cc(-c4cnc([C@@H]5CCCN5C(=O)[C@@H](NC(=O)OC)C(C)C)[nH]4)ccc32)[nH]1)C(C)C (single isomer, unassigned) [Compound 50] | – | – | – | – | – | 0.001 nM | 0.158 nM | 0.119 nM | 1.22 nM | – | – |
| COC(=O)N[C@H](C(=O)N1CCC[C@H]1c1ncc(-c2cc(F)c3c(c2)OC(c2cnc(C(C)C)s2)n2c-3cc3cc(-c4cnc([C@@H]5CCCN5C(=O)[C@@H](NC(=O)OC)C(C)C)[nH]4)ccc32)[nH]1)C(C)C (single isomer, unassigned) [Compound 86] | 0.002 nM | – | – | 0.0063 nM | 0.187 nM | – | 0.028 nM | – | – | – | – |
| COC(=O)N[C@H](C(=O)N1CCC[C@H]1c1ncc(-c2cc(F)c3c(c2)OC(c2nc4c(s2)CCCC4)n2c-3cc3cc(-c4cnc([C@@H]5CCCN5C(=O)[C@@H](NC(=O)OC)C(C)C)[nH]4)ccc32)[nH]1)C(C)C (single isomer, unassigned) [Compound 88] | – | – | – | – | – | – | – | – | 0.415 nM | 0.0028 nM | – |
| CCCc1ncc(C2Oc3cc(-c4cnc([C@@H]5CCCN5C(=O)[C@@H](NC(=O)OC)C(C)C)[nH]4)cc(F)c3-c3cc4cc(-c5cnc([C@@H]6C[C@H]7C[C@H]7N6C(=O)C(NC(=O)OC)C6CCOC(C)(C)C6)[nH]5)ccc4n32)s1 (single isomer, unassigned) [Compound 105] | – | – | – | – | – | 0.004 nM | – | 0.0029 nM | 0.017 nM | 0.0022 nM | – |
| COC(=O)NC(C(=O)N1CCC[C@H]1c1ncc(-c2ccc3c(c2)cc2n3C(c3cnc(C4CCC4)s3)Oc3cc(-c4cnc([C@@H]5CCCN5C(=O)[C@@H](NC(=O)OC)C(C)C)[nH]4)cc(C)c3-2)[nH]1)C1C[C@@H](C)O[C@H](C)C1 (single isomer, unassigned) [Compound 220] | 0.005 nM | – | 0.004 nM | 0.01 nM | 0.046 nM | – | – | – | – | – | – |
| COC(=O)NC(C(=O)N1CCC[C@H]1c1ncc(-c2ccc3c(c2)cc2n3C(c3cnc(C4CC4)s3)Oc3cc(-c4cnc([C@@H]5CCCN5C(=O)[C@@H](NC(=O)OC)C(C)C)[nH]4)cc(F)c3-2)[nH]1)C1C[C@@H](C)O[C@H](C)C1 (single isomer, unassigned) [Compound 305] | – | – | – | – | – | 0.004 nM | – | 0.0031 nM | 0.015 nM | 0.003 nM | – |
| COC(=O)N[C@H](C(=O)N1CCC[C@H]1c1ncc(-c2cc(F)c3c(c2)OC(c2csc(C4CC4)n2)n2c-3cc3cc(-c4cnc([C@@H]5CCCN5C(=O)[C@@H](NC(=O)OC)C(C)C)[nH]4)ccc32)[nH]1)C(C)C (single isomer, unassigned) [Compound 433] | – | – | – | – | 1.6 nM | 0.001 nM | 0.3 nM | 0.06 nM | – | – | – |
| COC(=O)NC(C(=O)N1C(c2ncc(-c3cc(F)c4c(c3)OC(c3cnc(C5CC5)s3)n3c-4cc4cc(-c5cnc(C6CC7(C)CC7N6C(=O)C(NC(=O)OC)C(C)C)[nH]5)ccc43)[nH]2)CC2(C)CC12)C(C)C (stereo not shown) [Compound 533] | – | – | – | – | – | 0.0196 nM | – | – | – | 0.0262 nM | 2.52 nM |
